The source of these data is US20120045528A1, “USE OF N20 GAS FOR TREATING CHRONIC PAIN” (priority 2009, published 2012).

Data set [1] concerns neuropathic rat (sciatic nerve constriction, CCI). Nature of the data set: Nociceptive threshold by vocalization test to a mechanical stimulus (Randall-Selitto) in rats with mononeuropathy from sciatic nerve constriction (CCI). The class given is in vivo, male Sprague-Dawley rats. Here is the method:
A mononeuropathy is induced in male Sprague-Dawley rats (8 per group) by sciatic nerve constriction. More specifically, on D0, the rats are anesthetized with halothane and the sciatic nerve (injured hind paw side) is prepared using chromic catgut, 4 filament. Neuropathic pain lasting more than 40 days is thus induced.
On D7, the rats are placed in a hermetic chamber where they will inhale, for 75 minutes, the test gas mixture or medical air in the control rats (Sham). Repeated exposures to the mixtures take place on D7, D8, and D9.
Other rats are subjected to comparative treatments with conventional painkilling products, namely ketamine (3×10 mg/kg, sc) and morphine (1 mg/kg, sc).
The nociceptive threshold is then measured via a vocalization test in response to a mechanical stimulus (Randall-Selitto).
The data obtained per measurement are expressed as mean (±standard deviation). The level of significance is set starting from P<0.05.

The next data set relates to human beings. Conditions: cited from earlier work.
Setting [2] is: morphine 1 mg/kg sc, neuropathic rat.
[3] abbreviates: N2O concentration 5-25% (vol. %).
Where [4] appears, read: N2O concentration 26-45% (vol. %).
The mark [5] stands for this setting: N2O concentration 45-65% (vol. %).

“Also recorded” adds a separate entry of the source. Like-named read-outs stand apart in the source and are kept apart here.

On to `CNC1(c2ccccc2Cl)CCCCC1=O` (stereo not shown) [ketamine], for which, in data set [1] (ketamine 3x10 mg/kg sc, neuropathic rat), the “duration of anti-hyperalgesic effect” value is recorded as ≤ 2 days.
For `CN1CC[C@]23c4c5ccc(O)c4O[C@H]2[C@@H](O)C=C[C@H]3[C@H]1C5` [morphine], the “duration of analgesic effect” value in data set [1] (morphine 1 mg/kg sc, D14, neuropathic rat) worked out at 30 min. Besides, in data set [1] (setting [2]), the “delayed effect (following days) / anti-hyperalgesic long-term effect” value is reported as “without a delayed effect; also recorded: without any anti-hyperalgesic long-term effect” and the “duration of effect following administration (in words)” value is recorded as “limited to a few minutes”.
As to `[N-]=[N+]=O` [nitrous oxide], in the data set with human beings (setting [3]), the Amnesia entry is listed as “none”, the Analgesia entry is listed as “none”, the Contact entry is recorded as “present” and the Psychic effects entry is on record as “slight”. Moreover, in the data set on human beings (setting [4]), the Amnesia result is reported as “slight”, the Analgesia entry was “weak”, the Contact result is “present” and the Psychic effects entry is “drunkenness”. Further, in the data set on human beings (setting [5]), the Amnesia result is recorded as “complete”, the Analgesia entry is given as “moderate”, the Contact result is reported as “present” and the Psychic effects result is on record as “drowsiness”. The “Psychic effects, Amnesia, Analgesia, Contact” value in the data set with human beings (N2O concentration 66-85% (vol. %)) is “Patient unconscious”. Further, the “duration of sustained reduction of chronic pain of neuropathic type” value in data set [1] (rat, in vivo) is listed as > 1 month.
In the case of `O=C1CC[C@@]2(O)[C@H]3Cc4ccc(O)c5c4[C@@]2(CCN3CC2CC2)[C@H]1O5` [naltrexone], in data set [1] (naltrexone given to block the analgesic effect of 50% nitrous oxide on D7), the “effect on the anti-sensitization effect of 50% nitrous oxide on the following days” value is given as “does not modify”.
